Data set [1] has as its target T1, Peroxisome proliferator-activated receptor delta (Homo sapiens, UniProt Q03181).
T1 sequence (Q03181 whole entry): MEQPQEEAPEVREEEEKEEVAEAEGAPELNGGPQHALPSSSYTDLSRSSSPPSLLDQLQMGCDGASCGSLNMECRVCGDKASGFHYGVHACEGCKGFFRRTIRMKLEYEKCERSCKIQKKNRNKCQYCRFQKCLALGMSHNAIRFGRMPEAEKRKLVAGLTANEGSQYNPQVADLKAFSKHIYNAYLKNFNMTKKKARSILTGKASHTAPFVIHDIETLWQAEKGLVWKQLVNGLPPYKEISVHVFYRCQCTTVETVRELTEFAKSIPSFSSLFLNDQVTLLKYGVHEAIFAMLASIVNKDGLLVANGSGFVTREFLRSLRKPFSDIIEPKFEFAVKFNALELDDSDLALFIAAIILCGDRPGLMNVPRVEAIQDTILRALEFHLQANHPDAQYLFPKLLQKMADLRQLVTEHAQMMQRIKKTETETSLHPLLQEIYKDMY
The data set can be described thus: Activation of human PPAR-delta LBD expressed in HEK293T cells assessed as induction of receptor activation incubated for 12 to 14 hrs by luciferase reporter gene assay. The format is cell-based, HEK-293T. A general note: Reporter assays use an easily measured gene product as a stand-in for the process of interest.

Data set [2] deals with T2, Peroxisome proliferator-activated receptor delta (Homo sapiens) (UniProt Q03181).
T2 sequence (whole entry): T1 sequence (Q03181 whole entry)
In words: Activation of human PPAR-delta LBD expressed in HEK293T cells assessed as induction of receptor activation at 1 uM incubated for 12 to 14 hrs by luciferase reporter gene assay relative to L165,041. The format is cell-based. The conditions noted are these: HEK-293T.

Data set [3] concerns the target T2, Peroxisome proliferator-activated receptor delta (Homo sapiens). In words: Activation of human PPAR-delta LBD expressed in HEK293T cells assessed as induction of receptor activation at 10 uM incubated for 12 to 14 hrs by luciferase reporter gene assay. Conditions: HEK-293T. It is filed as cell-based.
Data set [4] deals with T3, Retinoic acid receptor alpha (Homo sapiens) (UniProt P10276).
T3 sequence (whole entry): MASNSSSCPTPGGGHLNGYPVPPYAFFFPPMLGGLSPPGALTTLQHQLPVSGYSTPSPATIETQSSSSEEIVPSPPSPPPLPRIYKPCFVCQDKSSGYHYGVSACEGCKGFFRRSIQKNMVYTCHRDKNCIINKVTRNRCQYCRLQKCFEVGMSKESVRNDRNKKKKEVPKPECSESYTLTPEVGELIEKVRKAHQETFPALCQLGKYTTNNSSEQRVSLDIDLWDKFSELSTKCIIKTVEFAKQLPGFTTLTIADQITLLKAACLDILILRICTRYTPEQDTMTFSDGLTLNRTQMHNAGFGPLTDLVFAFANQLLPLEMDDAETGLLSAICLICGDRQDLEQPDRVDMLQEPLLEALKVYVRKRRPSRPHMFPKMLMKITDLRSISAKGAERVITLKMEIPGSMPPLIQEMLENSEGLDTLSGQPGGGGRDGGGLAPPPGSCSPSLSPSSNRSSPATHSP
The data set can be described thus: Activation of human RAR-alphaLBD expressed in HEK293T cells assessed as induction of receptor activation at 10 uM incubated for 12 to 14 hrs by luciferase reporter gene assay. It is filed as cell-based. Conditions: HEK-293T.

Data set [5] addresses T2, Peroxisome proliferator-activated receptor delta (Homo sapiens). In words: Activation of human PPAR-delta LBD expressed in HEK293T cells assessed as induction of receptor activation at 1 to 3 uM incubated for 12 to 14 hrs by luciferase reporter gene assay. The format is cell-based. The conditions noted are these: HEK-293T.
Data set [6] concerns the target T4, Bile acid receptor (Homo sapiens) (UniProt Q96RI1).
T4 sequence (whole entry): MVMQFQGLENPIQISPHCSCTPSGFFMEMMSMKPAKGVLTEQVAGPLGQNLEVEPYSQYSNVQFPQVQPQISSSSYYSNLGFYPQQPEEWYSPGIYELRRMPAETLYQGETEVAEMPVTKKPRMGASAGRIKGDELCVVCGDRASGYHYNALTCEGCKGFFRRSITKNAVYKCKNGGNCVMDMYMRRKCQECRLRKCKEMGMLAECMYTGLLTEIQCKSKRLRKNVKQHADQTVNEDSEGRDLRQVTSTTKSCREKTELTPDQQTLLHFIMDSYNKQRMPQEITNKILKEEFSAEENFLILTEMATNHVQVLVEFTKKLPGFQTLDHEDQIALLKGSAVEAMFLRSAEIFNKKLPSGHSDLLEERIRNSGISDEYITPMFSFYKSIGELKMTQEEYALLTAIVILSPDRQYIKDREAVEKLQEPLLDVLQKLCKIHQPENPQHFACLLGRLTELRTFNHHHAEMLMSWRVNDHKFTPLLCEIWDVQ
In words: Activation of FXR in human HepG2 cells assessed as increase in BSEP mRNA expression at 3 uM incubated for 8 hrs by quantitative real time PCR analysis. It is filed as cell-based.

The target of data set [7] is T4, Bile acid receptor (Homo sapiens). In words: Activation of FXR in human HepG2 cells assessed as decrease in CYP7A1 mRNA expression at 3 uM incubated for 8 hrs by quantitative real time PCR analysis. It is filed as cell-based. A general note: In qPCR the cycle at which signal appears reflects the starting amount.
Data set [8] concerns the target T5, Peroxisome proliferator-activated receptor delta (Mus musculus) (UniProt P35396).
T5 sequence (whole entry): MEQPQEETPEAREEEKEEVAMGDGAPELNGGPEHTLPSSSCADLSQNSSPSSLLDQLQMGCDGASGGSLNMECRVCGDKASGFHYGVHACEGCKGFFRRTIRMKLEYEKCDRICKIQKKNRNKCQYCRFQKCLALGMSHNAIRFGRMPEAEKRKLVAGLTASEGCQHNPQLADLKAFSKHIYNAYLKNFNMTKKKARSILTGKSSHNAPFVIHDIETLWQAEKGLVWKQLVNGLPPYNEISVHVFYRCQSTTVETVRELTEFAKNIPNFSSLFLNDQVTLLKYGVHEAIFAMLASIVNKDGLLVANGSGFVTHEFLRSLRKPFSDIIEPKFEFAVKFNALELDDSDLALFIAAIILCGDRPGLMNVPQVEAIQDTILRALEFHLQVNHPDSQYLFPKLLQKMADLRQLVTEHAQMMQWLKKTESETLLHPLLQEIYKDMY
In words: Activation of PPARD in mouse C2C12 cells assessed as increase LpL mRNA expression at 3 uM incubated for 8 hrs by quantitative real time PCR analysis. It is filed as cell-based.

Data set [9] is described as follows: Stability in Sprague-Dawley rat liver microsomes assessed as remaining parent compound level at 10 uM presence of NADPH regenerating system by HPLC analysis. The format is ADME, Microsome. The conditions noted are these: read-out: Stability. Background: Liver microsomes are vesicles of endoplasmic reticulum, rich in cytochrome P450 enzymes.
Data set [10] has as its system HepG2. The data set can be described thus: Toxicity in human HepG2 cells assessed as reduction in cell viability up to 100 uM incubated for 48 hrs by WST1 assay. The conditions noted are these: hepg2, 48 h. It is filed as cell-based.

Structures are written as SMILES. Activity calls are given as the source filed them. The calls are words filed in the database; no cut-off is given here.

In general, EC50 refers to the midpoint of the concentration-response curve. For `CC(C)c1onc(-c2c(Cl)cccc2Cl)c1COc1ccc(CNc2ccc(CC(=O)O)cc2)c(Cl)c1`, in [1], the EC50 amounted to 1.5 µM. The %max in data set [2] came to 17%. For the same molecule, the result in [3], in data set [5], in data set [6], in data set [7] and in data set [8] was Active. Further, the outcome in [4] was inactive. For the same molecule, the remaining at 10 µM in [9] was 48%. In addition, in data set [10], the Activity entry is “Non-Toxic”.

The values are drawn from ChEMBL document CHEMBL4627415, “Design and Structural Optimization of Dual FXR/PPARδ Activators” (J Med Chem, 2020).
